Measurements published in the NIST ThermoML archive (doi:10.1016/j.fluid.2012.06.002).
± gives the expanded uncertainty stated by the source.

Assay: wn = mass fraction of the nth substance listed
Settings: 101 kPa, Liquid, pycnometer

Structure (SMILES) | mass density (298.15 K, w1 = 0.293) | mass density (328.15 K, w1 = 0.436) | mass density (298.15 K, w1 = 0.538) | mass density (328.15 K, w1 = 0.734)
N.O=P(O)(O)O [ammonium dihydrogen phosphate] + O | 1164 ± 1 kg/m3 | 1258 ± 1 kg/m3 |  | 
NC(N)=O.O=P(O)(O)O [urea phosphate] + O |  |  | 1260 ± 1 kg/m3 | 1359 ± 2 kg/m3
